What was measured:
[1] = biological target: T1, D427A DXPS (Escherichia coli, UniProt P77488, D427A); assay: DXPS-IspC coupled assay, D427A variant; type: biochemical, E. coli
T1 construct: made in house
Experimental: (§1) To determine the role of active site network residues in the activity of oximes, inhibitory activity of 1 was assessed against EcD427A, EcH431A, and EcR99A by the DXPS-IspC coupled assay[41],[42] (Fig 4B, S3, Table S1). Ki determination was performed by varying [pyruvate] in order to assess the impact of residue substitutions on the uncompetitive mode of inhibition. […] (8.7 ± 1.2 μM, Fig S3, Table S1).
Inhibitory activity of compounds against DXPS were monitored via a continuous spectrophotometric coupled assay with DXPS and IspC as previously described.[41],[42] […]
When varying pyruvate (0–500 μM), GAP was maintained at 50 μM (3 mM for R478A). […] Immediately following initiation, NADPH depletion was monitored at 340 nm at 25 °C for 7–10 min with a 14–20 second time interval. Initial velocities of DXP formation were determined from the linear portion of the NADPH decay. […] Initial velocities were plotted vs. substrate concentration, and the data were fit to equation 1 (mixed model), 2 (competitive), or 3 (uncompetitive) based on the calculated α value and goodness of fit in GraphPad Prism. Reported standard errors of the mean for Kis are calculated from three replicates.

[2] = biological target: T2, R99A DXPS (Escherichia coli, UniProt P77488, R99A); assay: DXPS-IspC coupled assay, R99A variant; type: biochemical, E. coli
T2 construct: made in house
Experimental: as §1
Inhibitory activity of compounds against DXPS were monitored via a continuous spectrophotometric coupled assay with DXPS and IspC as previously described.[41],[42] Briefly, Reaction mixtures containing HEPES (100 mM, pH 8.0), MgCl2 (2 mM), NaCl (5 mM), ThDP (1 mM), BSA (1 mg/mL), DXPS (125–500 nM), IspC (1.7 μM), NADPH (160 μM), DMSO (5%, v/v), and inhibitor (0–200 μM) were preincubated at 25 °C (or chamber temperature 25–30 °C) for 5 min. Enzymatic reactions were initiated via the addition of 20 μL of a 10x substrate mix for a final well volume of 200 μL. Reactions were performed in triplicate unless otherwise noted. See the following sections for details and modifications.
When varying pyruvate (0–500 μM), GAP was maintained at 50 μM (3 mM for R478A). When varying GAP (0–500 μM), pyruvate was maintained at 500 μM. The following [DXPS] were used when varying 1: WT EcDXPS, R478A, H431A, D427A (200 nM), R99A (500 nM), WT DrDXPS, WT PaDXPS (150 nM). Analogs 3 and 4 were tested using WT EcDXPS (150 nM). Reactions were incubated and initiated as described above. Immediately following initiation, NADPH depletion was monitored at 340 nm at 25 °C for 7–10 min with a 14–20 second time interval. Initial velocities of DXP formation were determined from the linear portion of the NADPH decay. Initial velocities were arithmetically corrected for background for compound 4. Initial velocities were plotted vs. substrate concentration, and the data were fit to equation 1 (mixed model), 2 (competitive), or 3 (uncompetitive) based on the calculated α value and goodness of fit in GraphPad Prism. Reported standard errors of the mean for Kis are calculated from three replicates.

[3] = biological target: T3, pyruvate decarboxylase (PDC) (Saccharomyces cerevisiae, UniProt P06169); assay: Inhibition of PDC (ADH coupled assay); type: biochemical, S. cerevisiae
T3 construct: purchased Sigma Aldrich P9474; host or cells: baker's yeast
Experimental: Reaction conditions were optimized from a previously reported assay.[38] Briefly, reaction mixtures containing MES (100 mM, pH 6.2), MgCl2 (2 mM), ThDP (5 mM), PDC (0.06 U/mL), ADH (16 U/mL), NADH (170 μM), and 1 (0 or 200 μM) were preincubated at 25 °C for 5 min. Enzymatic reactions were initiated via the addition of 20 μL of 10x pyruvate (final 1mM), or water for background controls, for a final well volume of 200 μL. Immediately following initiation, NADH depletion was monitored at 340 nm at 25 °C for 7 min with a 14 second time interval. Initial velocities of acetaldehyde formation were measured and arithmetically corrected for background rates. Standard errors of reported % inhibition values were determined from 3 replicates. pH controls were conducted with phosphate buffer (pH 7 and 8); background subtraction was not performed on these samples. Reported standard errors of the mean for Kis are calculated from three replicates.

[4] = NMR detection of redox state of 1; type: physicochemical
Experimental: NMR experiments were performed as previously described[16],[24] with the following modifications. Experiments were performed aerobically unless otherwise noted. Anaerobic experiments were performed in the anaerobic chamber up to the point of transfer to NMR tubes which were capped with rubber septa to exclude oxygen once removed from the chamber. […] Solutions were also prepared aerobically in the presence of ascorbate (5 mM) and CAT (0.25 mg/mL). Oxime 1 (500 μM) was then added and solutions were incubated at 4 °C for 20 min. After incubation, 600 μL of each solution were transferred to labeled NMR tubes. 1D ^1H-NMR and 1D ^1H detected H{^13C} and H3{^13C} spectra via a proton multiplicity filter, which selects for ^13C nuclei attached to an odd number of protons, were acquired on a Bruker Avance 600 MHz or a Bruker Avance NEO 600 MHz spectrometer (HEPES anaerobic and Tris anaerobic) equipped with a TCI cryogenic probe equipped with z-gradients with a cryo-cooled ^13C preamplifier, resulting in high sensitivity for ^13C detection. Spectra were acquired at 600 MHz (^1H) and 150 MHz (^13C), at 25 °C utilizing a 90° ^1H excitation pulse (optimized for maximum signal-to-noise per unit time), 128 scans/FID (^1H-NMR), 200 ms acquisition time/FID, and a 3s relaxation day between successive scans, or 64 scans/FID (^1H detected H{^13C} and H3{^13C}), 200 ms acquisition time/FID, and a 5s relaxation day between successive scans.

ON=Cc1cc(O)c(O)cc1O [compound 1, 2,4,5-trihydroxybenzaldoxime]
Ki [1]: 4.8 ± 0.2 µM | MOI varying pyruvate ([1]; EcD427A): uncompetitive | MOI varying D-GAP ([2]; EcR99A): competitive | MOI varying pyruvate ([2]; EcR99A): uncompetitive | Ki ([2]; Ki Vary Pyruvate, R99A, pyruvate 0–500 μM): 30 ± 1 µM | Ki ([2]; Ki varying [D-GAP], R99A, GAP 0–500 μM, pyruvate 500 μM): 8.7 ± 1.2 µM | Ki/Ki^wt ([2]; R99A, vary pyruvate, fold reduction in potency vs WT): ~ 6 | fold reduction in potency relative to WT ([2]; R99A, varying [D-GAP]): 4 fold | Inhibition of PDC at pH 7 or 8 ([3]; 200 μM, phosphate buffer pH 7 and 8): not observed | %Inhibition at 200 μM 1 ([3]; PDC, MES pH 6.2, 200 μM): ~ 14% | inhibition at 200 µM ([3]; pH 6.2, PDC, MES pH 6.2, 200 μM, read-out: %Inhibition at 200 μM 1): 14.2 ± 2.3% | redox state by 1H-NMR ([4]; 500 μM, HEPES 50 mM pH 8, aerobic): partially | redox state by 1H-NMR ([4]; 500 μM, HEPES pH 8, aerobic, ascorbate 5 mM): reduced | redox state by 1H-NMR ([4]; 500 μM, HEPES pH 8, aerobic, catalase 0.25 mg/mL): mostly oxidized | redox state by 1H-NMR ([4]; 500 μM, Tris 50 mM pH 8, aerobic): mostly | redox state by 1H-NMR ([4]; 500 μM, acidic pH (MES pH 6.2), aerobic): mostly reduced | redox state by 1H-NMR ([4]; 500 μM, neutral and basic pH (phosphate pH 7, CHES pH 9), aerobic): oxidized | redox state by 1H-NMR ([4]; 12.5 mM, HEPES 100 mM pH 8, aerobic): primarily in the reduced state | redox state by 1H-NMR ([4]; anaerobic conditions): primarily in its reduced form
